Reference: the NIST ThermoML archive (doi:10.1021/je700294p)

Tests used:
[1] = refractive index (Na D-line) (dimensionless); conditions: 101.33 kPa, Liquid, Standard Abbe refractometry
[2] = 101.33 kPa, Liquid
[3] = xn = mol fraction of the nth substance listed; conditions: 101 kPa, Liquid
[4] = excess molar enthalpy (molar enthalpy of mixing); xn = mol fraction of the nth substance listed; conditions: 101 kPa, Liquid

CCCC[n+]1cccc(C)c1.F[B-](F)(F)F [1-butyl-3-methylpyridinium tetrafluoroborate]
Conditions	mass density, [2] [kg/m3]	refractive index, [1]
298.15 K	1182.19	1.4473
318.15 K	1168.31	1.4422

CCCC[n+]1cccc(C)c1.F[B-](F)(F)F [1-butyl-3-methylpyridinium tetrafluoroborate] + CCCCO
Conditions	excess molar enthalpy [kcal/mol]	mass density [kg/m3]
[3], 298.15 K, x1 = 0.0166	–	819.7
[3], 298.15 K, x1 = 0.7641	–	1136.6
[3], 298.15 K, x1 = 0.8166	–	1147.7
[3], 298.15 K, x1 = 0.8558	–	1155.7
[3], 298.15 K, x1 = 0.904	–	1165.1
[3], 318.15 K, x1 = 0.0191	–	805.5
[3], 318.15 K, x1 = 0.6961	–	1107.5
[3], 318.15 K, x1 = 0.7777	–	1125.9
[3], 318.15 K, x1 = 0.8535	–	1141.6
[3], 318.15 K, x1 = 0.9084	–	1152.1
[3], 318.15 K, x1 = 0.9479	–	1159.4
[4], 318.15 K, x1 = 0.0098	0.0361	–
[4], 318.15 K, x1 = 0.025	0.0684	–
[4], 318.15 K, x1 = 0.0464	0.138	–
[4], 318.15 K, x1 = 0.3603	0.681	–
[4], 318.15 K, x1 = 0.3932	0.684	–
[4], 318.15 K, x1 = 0.445	0.677	–
[4], 318.15 K, x1 = 0.5101	0.652	–
[4], 318.15 K, x1 = 0.5852	0.591	–
[4], 318.15 K, x1 = 0.6705	0.503	–
[4], 318.15 K, x1 = 0.7667	0.378	–
[4], 318.15 K, x1 = 0.8531	0.264	–
[4], 318.15 K, x1 = 0.9346	0.125	–

CCCC[n+]1cccc(C)c1.F[B-](F)(F)F [1-butyl-3-methylpyridinium tetrafluoroborate] + CCCO
Conditions	excess molar enthalpy [kcal/mol]	mass density [kg/m3]
[3], 298.15 K, x1 = 0.016	–	816.7
[3], 298.15 K, x1 = 0.4528	–	1066.5
[3], 298.15 K, x1 = 0.494	–	1079.3
[3], 298.15 K, x1 = 0.5262	–	1088.6
[3], 298.15 K, x1 = 0.5959	–	1106.9
[3], 298.15 K, x1 = 0.6934	–	1129.5
[3], 298.15 K, x1 = 0.7543	–	1141.9
[3], 298.15 K, x1 = 0.7993	–	1150.4
[3], 298.15 K, x1 = 0.8582	–	1160.4
[3], 298.15 K, x1 = 0.8962	–	1166.6
[3], 318.15 K, x1 = 0.0143	–	798.4
[3], 318.15 K, x1 = 0.0249	–	808.8
[3], 318.15 K, x1 = 0.0477	–	830.6
[3], 318.15 K, x1 = 0.1003	–	873.4
[3], 318.15 K, x1 = 0.1222	–	890.6
[3], 318.15 K, x1 = 0.1492	–	909.3
[3], 318.15 K, x1 = 0.2	–	940.8
[3], 318.15 K, x1 = 0.2295	–	957.5
[3], 318.15 K, x1 = 0.3112	–	997.8
[3], 318.15 K, x1 = 0.4002	–	1033.6
[3], 318.15 K, x1 = 0.4285	–	1043.6
[3], 318.15 K, x1 = 0.4635	–	1055.3
[3], 318.15 K, x1 = 0.5638	–	1084.7
[3], 318.15 K, x1 = 0.6072	–	1095.8
[3], 318.15 K, x1 = 0.6405	–	1103.5
[3], 318.15 K, x1 = 0.7096	–	1118.9
[3], 318.15 K, x1 = 0.8001	–	1136.9
[3], 318.15 K, x1 = 0.8522	–	1145.7
[3], 318.15 K, x1 = 0.9028	–	1154.2
[4], 298.15 K, x1 = 0.0139	0.039	–
[4], 298.15 K, x1 = 0.0242	0.0564	–
[4], 298.15 K, x1 = 0.0278	0.0681	–
[4], 298.15 K, x1 = 0.3397	0.56	–
[4], 298.15 K, x1 = 0.3707	0.56	–
[4], 298.15 K, x1 = 0.4045	0.552	–
[4], 298.15 K, x1 = 0.4278	0.544	–
[4], 298.15 K, x1 = 0.4642	0.531	–
[4], 298.15 K, x1 = 0.498	0.506	–
[4], 298.15 K, x1 = 0.5458	0.47	–
[4], 298.15 K, x1 = 0.5983	0.416	–
[4], 298.15 K, x1 = 0.6621	0.364	–
[4], 298.15 K, x1 = 0.7278	0.298	–
[4], 298.15 K, x1 = 0.7939	0.229	–
[4], 298.15 K, x1 = 0.8653	0.164	–
[4], 298.15 K, x1 = 0.9335	0.0973	–
[4], 318.15 K, x1 = 0.0232	0.0997	–
[4], 318.15 K, x1 = 0.052	0.185	–
[4], 318.15 K, x1 = 0.0852	0.276	–
[4], 318.15 K, x1 = 0.1233	0.371	–
[4], 318.15 K, x1 = 0.1608	0.46	–
[4], 318.15 K, x1 = 0.2011	0.534	–
[4], 318.15 K, x1 = 0.2044	0.552	–
[4], 318.15 K, x1 = 0.2311	0.583	–
[4], 318.15 K, x1 = 0.2591	0.611	–
[4], 318.15 K, x1 = 0.2896	0.634	–
[4], 318.15 K, x1 = 0.3223	0.652	–
[4], 318.15 K, x1 = 0.3585	0.663	–
[4], 318.15 K, x1 = 0.3982	0.664	–
[4], 318.15 K, x1 = 0.4404	0.655	–
[4], 318.15 K, x1 = 0.4891	0.634	–
[4], 318.15 K, x1 = 0.5441	0.598	–
[4], 318.15 K, x1 = 0.6073	0.537	–
[4], 318.15 K, x1 = 0.674	0.457	–
[4], 318.15 K, x1 = 0.7504	0.361	–
[4], 318.15 K, x1 = 0.8323	0.252	–
[4], 318.15 K, x1 = 0.9131	0.143	–

CCCC[n+]1cccc(C)c1.F[B-](F)(F)F [1-butyl-3-methylpyridinium tetrafluoroborate] + CCO
Conditions	excess molar enthalpy [kcal/mol]	mass density [kg/m3]
[3], 298.15 K, x1 = 0.0518	–	851.1
[3], 298.15 K, x1 = 0.0719	–	872.9
[3], 298.15 K, x1 = 0.1054	–	905.6
[3], 298.15 K, x1 = 0.1999	–	975.5
[3], 298.15 K, x1 = 0.2539	–	1006.2
[3], 298.15 K, x1 = 0.3	–	1028.2
[3], 298.15 K, x1 = 0.4054	–	1068.6
[3], 298.15 K, x1 = 0.5082	–	1098.9
[3], 298.15 K, x1 = 0.5895	–	1118
[3], 298.15 K, x1 = 0.664	–	1133
[3], 298.15 K, x1 = 0.7275	–	1144.5
[3], 298.15 K, x1 = 0.7682	–	1151
[3], 318.15 K, x1 = 0.0401	–	821.1
[3], 318.15 K, x1 = 0.0671	–	851
[3], 318.15 K, x1 = 0.0992	–	882.7
[3], 318.15 K, x1 = 0.1497	–	924.5
[3], 318.15 K, x1 = 0.2531	–	989.5
[3], 318.15 K, x1 = 0.3062	–	1015.1
[3], 318.15 K, x1 = 0.4041	–	1053
[3], 318.15 K, x1 = 0.5002	–	1082.2
[3], 318.15 K, x1 = 0.5998	–	1106.3
[3], 318.15 K, x1 = 0.6632	–	1118.8
[3], 318.15 K, x1 = 0.7118	–	1127.7
[3], 318.15 K, x1 = 0.7904	–	1141
[4], 298.15 K, x1 = 0.0052	0.0354	–
[4], 298.15 K, x1 = 0.0159	0.0989	–
[4], 298.15 K, x1 = 0.0279	0.148	–
[4], 298.15 K, x1 = 0.0457	0.203	–
[4], 298.15 K, x1 = 0.0691	0.26	–
[4], 298.15 K, x1 = 0.0972	0.312	–
[4], 298.15 K, x1 = 0.1132	0.338	–
[4], 298.15 K, x1 = 0.1263	0.362	–
[4], 298.15 K, x1 = 0.128	0.368	–
[4], 298.15 K, x1 = 0.145	0.396	–
[4], 298.15 K, x1 = 0.1585	0.405	–
[4], 298.15 K, x1 = 0.1639	0.418	–
[4], 298.15 K, x1 = 0.1838	0.445	–
[4], 298.15 K, x1 = 0.2062	0.47	–
[4], 298.15 K, x1 = 0.2305	0.495	–
[4], 298.15 K, x1 = 0.2577	0.515	–
[4], 298.15 K, x1 = 0.2878	0.531	–
[4], 298.15 K, x1 = 0.3217	0.544	–
[4], 298.15 K, x1 = 0.3623	0.546	–
[4], 298.15 K, x1 = 0.4085	0.527	–
[4], 298.15 K, x1 = 0.4689	0.484	–
[4], 298.15 K, x1 = 0.5396	0.425	–
[4], 298.15 K, x1 = 0.6277	0.348	–
[4], 298.15 K, x1 = 0.7386	0.257	–
[4], 298.15 K, x1 = 0.8712	0.14	–
[4], 298.15 K, x1 = 0.9405	0.0727	–
[4], 318.15 K, x1 = 0.0123	0.0626	–
[4], 318.15 K, x1 = 0.0273	0.129	–
[4], 318.15 K, x1 = 0.0472	0.201	–
[4], 318.15 K, x1 = 0.0704	0.269	–
[4], 318.15 K, x1 = 0.098	0.342	–
[4], 318.15 K, x1 = 0.1279	0.411	–
[4], 318.15 K, x1 = 0.1612	0.475	–
[4], 318.15 K, x1 = 0.1789	0.508	–
[4], 318.15 K, x1 = 0.2034	0.544	–
[4], 318.15 K, x1 = 0.2335	0.577	–
[4], 318.15 K, x1 = 0.2681	0.605	–
[4], 318.15 K, x1 = 0.3063	0.627	–
[4], 318.15 K, x1 = 0.3498	0.644	–
[4], 318.15 K, x1 = 0.4055	0.645	–
[4], 318.15 K, x1 = 0.4787	0.615	–
[4], 318.15 K, x1 = 0.5648	0.549	–
[4], 318.15 K, x1 = 0.6576	0.451	–
[4], 318.15 K, x1 = 0.7668	0.326	–
[4], 318.15 K, x1 = 0.881	0.184	–
